Key:
[1] = Half life in human plasma at 2.05 mg/mL; assay type: ADME, cell-free
[2] = Half life in Sprague-Dawley rat brain homogenate at 2.075 mg/mL; assay type: ADME, tissue-based
[3] = n-octanol-phosphate buffer apparent distribution coefficient, log D of the compound at pH 7.4 by shake flask method; assay type: physicochemical

N[C@@H](Cc1c[nH]c2ccccc12)C(=O)NCCc1ccc(O)c(O)c1
half-life [1]: 120 min
half-life [2]: 80 min
logD [3]: 0.5

CC(C)C[C@H](N)C(=O)NCCc1ccc(O)c(O)c1
half-life [1]: 46 min
half-life [2]: 193 min
logD [3]: 0.18

Source: ChEMBL document CHEMBL3875156, “Design, synthesis and preliminary evaluation of dopamine-amino acid conjugates as potential D1 dopaminergic modulators” (Eur J Med Chem, 2016)
